# From patent publication US20250346582A1, “SPLEEN TYROSINE KINASE INHIBITORS AND METHODS OF USE THEREOF” (THE BOARD OF TRUSTEES OF THE UNIVERSITY OF ILLINOIS, priority 2022, published 2025)
# Legend:
# [1] = tested on: phosphorylation of ERK1/2 and STAT3/5; assay: Western blot of phosphorylation in HL60 cells; type: cell-based; details: RAS-mutated HL60 cells; 5 μM
# Procedure: FIGS. 3A-3D show the inhibition of the signaling activity and proliferation of HL-60 AML cells by Syk-cSH2 inhibitors. […] DMSO was used as a negative control and GAPDH as a gel loading control. […] (c) Inhibition of phosphorylation of Syk, STAT3/5 and ERK1/2 in patient-derived primary AML cells by WC36. Cells were cultured overnight in the presence of CD34+ cytokine supplement. DMSO was used as a negative control. Representative data from one (Patient 1) of four patient samples are shown here. (d) Inhibition of the proliferation of four patient AML cells by WC36 measured by the colony growth assay. The number of colonies after WC36 treatment was normalized to the enumerated colonies after DMSO treatment.
# (§1) Cells were seeded at a density of 3.0×10^5 cells/well prior to incubation with inhibitors. Cells were incubated with 1-5 μM of Syk inhibitors overnight and stimulated with different antibodies: IgG2 for AML cells, IgM for Raji B cells, and OKT3 (Biolegend) for Jurkat cells. The cells were lysed in NP40 lysis buffer (50 mM Tris, pH 7.5, 150 mM NaCl, 1 mM EDTA, 1% NP40, 10% glycerol, 10 mM NaF, 10 mM Na3VO4, and the protease inhibitor cocktail) at 4° C. and the cell debris was removed by centrifugation. Samples were analyzed by SDS-PAGE. Proteins were separated and transferred to Immobilon-P polyvinylidene difluoride membrane (Millipore Sigma). The membrane was blocked with 5% bovine serum albumin for 1 h and incubated overnight at 4° C. with various antibodies (1:1000 dilution for all antibodies). After the unbound antibodies were removed by washing with 0.1% Tris buffer saline with 0.1% Tween20, the membranes were incubated with the horseradish peroxidase secondary antibody (1:5000 dilution) for 1 h at room temperature. The membranes were washed three more times with 0.1% Tris buffer saline with 0.1% Tween20 to remove the unbound horseradish peroxidase secondary antibody before imaging. The chemiluminescence intensity of protein bands in the gel was analyzed and documented by the Azure 500Q Imaging System.
# ZAP70-cSH2 = target: T1, ZAP70-cSH2 (Homo sapiens, UniProt P43403); assay: Fluorescence quenching vesicle binding assay, ZAP70-cSH2; details: for Emax: read-out: Imax (%); for inhibition of ZAP-70-cSH2 binding to POPC/POPS/PIP3/dabsyl-PE vesicles: in words
# T1 construct: polyhistidine (N); made in house; host or cells: Escherichia coli BL21 (DE3) pLysS
# T1 sequence (P43403 163-254 limits assumed): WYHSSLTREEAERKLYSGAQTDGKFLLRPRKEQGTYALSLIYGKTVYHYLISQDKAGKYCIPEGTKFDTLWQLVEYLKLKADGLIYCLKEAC
# Procedure: (§2) The membrane-binding assay is based on fluorescence quenching of EGFP fused to a SH2 domain by a dark quencher containing lipid, dabsyl-PE, incorporated in lipid vesicles. The plate reader assay was performed using the Synergy™ Neo spectrofluorometer at 25° C. Nontreated black polystyrene 96-well plates (Corning) were used. Protein (10-50 nM) with the increasing concentration of vesicles with a given lipid composition in 20 mM Tris buffer, pH 7.4, containing 0.16 M NaCl was added to each row of wells and the EGFP fluorescence emission at 516 nm was measured with excitation set at 485 nm. Z′ factor for the assay system was determined as described^74. Imax and IC50 values of inhibitors were determined using the equation, I=Imax/(1+IC50/[I]) where I and [I] indicate % inhibition and inhibitor concentration, respectively. The average and standard deviation values were obtained from triplicate determinations.
# (§3) We also optimized a recently developed fluorescence quenching-based lipid-binding assay^47 for high-throughput screening of these molecules for their inhibitory activity against the PIP3-SH2 interaction. Specifically, we expressed SH2 domains as EGFP-tagged proteins and directly quantified their membrane binding by monitoring the quenching of EGFP fluorescence emission intensity by a dark quencher-containing lipid, N-dimethylaminoazo-benzenesulfonyl-phosphatidylethanolamine (dabsyl-PE), incorporated in the vesicles. We then screened for compounds that inhibited binding of Syk-cSH2, BLNK-SH2, and PLCγ2-cSH2, respectively, to 1-palmitoyl-2-oleoyl-PC (POPC)/1-palmitoyl-2-oleoyl-PS (POPS)/PIP3/dabsyl-PE (67:20:3:10) vesicles while eliminating those that inhibit their non-specific binding to anionic POPC/POPS/dabsyl-PE (70:20:10) vesicles. The quality of the screening system was evaluated using 1% dimethylsulfoxide (DMSO) and 20 μM D-myo-inositol-1,3,4,5-tetraphosphate (IP4) as negative and positive controls, respectively. The clear separation of positive and negative control data and the average Z′-factor of 0.7 supported the robustness of our system for high-throughput screen of PIP3-SH2 interaction inhibitors.
# [2] = tested on: phosphorylation of Syk, ERK1/2 and STAT3/5; assay: Western blot of phosphorylation in entospletinib-resistant MV4-11 cells; type: cell-based; details: 5 μM
# Procedure: as §1
# Then the concentration was maintained at 5 μM.
# [3] = tested on: BCR signaling axis (Syk-BLNK-PLCγ2); assay: Western blot of BCR signaling axis in Raji B lymphocytes; type: cell-based; details: Raji B cells
# Procedure: as §1
# PLCγ2-cSH2 = target: T2, PLCγ2-cSH2 (Homo sapiens, UniProt P16885); assay: Fluorescence quenching vesicle binding assay, PLCγ2-cSH2; details: Table 4; POPC/POPS/PIP3/dabsyl-PE (67:20:3:10) vesicles (40 μM); read-out: Imax (%)
# T2 construct: polyhistidine (N); made in house; host or cells: Escherichia coli BL21 (DE3) pLysS
# T2 sequence (P16885 646-735 limits assumed): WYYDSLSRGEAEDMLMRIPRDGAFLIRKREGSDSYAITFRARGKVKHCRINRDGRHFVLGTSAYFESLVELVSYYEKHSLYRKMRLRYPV
# Procedure: as §2, §3
# pSyk = target: T3, pSyk (Homo sapiens, UniProt P43405); assay: Western blot inhibition of Syk phosphorylation in Raji B cells; type: cell-based; details: Immunoblotting, Western blot assay in Raji B cells
# T3 construct: endogenous in cells; host or cells: Raji B cells, IgM-stimulated
# Procedure: (a) Cellular efficacy of WC35, WC36, and WC38 was determined by dose-dependent inhibition of Syk phosphorylation in Raji B cells. (b) Imax and IC50 values were determined by non-linear least-squares analysis of data using the equation: […] Each data represents average ±s.d. from triplicate measurements. […] Jurkat T cells were stimulated by OKT3. Cells were seeded at a density of 3.0×10^5 cells/well prior to incubation with inhibitors. […] IgG2 for AML cells, IgM for Raji B cells, and OKT3 (Biolegend) for Jurkat cells. […] Samples were analyzed by SDS-PAGE. Proteins were separated and transferred to Immobilon-P polyvinylidene difluoride membrane (Millipore Sigma). […] The chemiluminescence intensity of protein bands in the gel was analyzed and documented by the Azure […] Imaging System.
# [4] = Table 4, POPC/POPS/PIP3/dabsyl-PE (67:20:3:10) vesicles (40 μM)
SMILES,inhibition of phosphorylation of ERK1/2 and STAT3/5 [1],Emax (ZAP70-cSH2; [4]) [%],inhibition of ZAP-70-cSH2 binding to POPC/POPS/PIP3/dabsyl-PE vesicles (ZAP70-cSH2),"inhibition of phosphorylation of Syk, ERK1/2 and STAT3/5 [2]","effect on phosphorylation of BCR signaling proteins (Syk, BLNK, PLCγ2) [3]",Emax (PLCγ2-cSH2) [%],IC50 (pSyk) [nM],Imax (%) (pSyk),IC50 (ZAP70-cSH2; [4]) [nM]
"[N-]=[N+]=C(C(=O)OC1CCCCC1)C(Nc1ncccn1)c1ccco1 (racemic) [WC35, Cyclohexyl 2-diazo-3-(furan-2-yl)-3-(pyrimidin-2-ylamino)propanoate]",less active then WC36,< 20,did not inhibit binding,significantly less active than WC36,effectively suppressed phosphorylation of all BCR signaling proteins,< 10,180 ± 50,58 ± 5,
"[N-]=[N+]=C(C(=O)OC1CCCCC1)C(Nc1ncccn1)c1c[nH]c2ccccc12 (racemic) [WC36, Cyclohexyl 2-diazo-3-(1H-indol-3-yl)-3-(pyrimidin-2-ylamino)propanoate]",potent against phosphorylation of ERK1/2 and STAT3,< 10,did not inhibit binding,"potently suppressed the phosphorylation and activation of Syk, ERK1/2, and STAT3/5",effectively suppressed phosphorylation of all BCR signaling proteins,< 10,52 ± 10,67 ± 5,
"[N-]=[N+]=C(C(=O)OC1CCCCC1)C(Nc1ncccn1)c1ccc[nH]1 (racemic) [WC38, Cyclohexyl 2-diazo-3-(pyrimidin-2-ylamino)-3-(1H-pyrrol-2-yl)propanoate]",less active then WC36,30 ± 5,did not inhibit binding,significantly less active than WC36,effectively suppressed phosphorylation of all BCR signaling proteins,< 10,180 ± 30,65 ± 3,340 ± 20
